Assay [1] has as its target Prostaglandin E2 receptor EP2 subtype (Mus musculus, UniProt Q62053). Kind of assay: Evaluated for its competitive binding affinity towards mouse Prostanoid EP2 receptor in CHO cells expressing prostanoid receptor. The assay is classed as cell-based.
For assay [2], the target named is T1, Prostaglandin E2 receptor EP4 subtype (Mus musculus, UniProt P32240). Kind of assay: Effective concentration which increases intracellular c-AMP production in mouse Prostanoid EP4 receptor. It counts as functional, cell-based.
T1 sequence (P32240 whole entry): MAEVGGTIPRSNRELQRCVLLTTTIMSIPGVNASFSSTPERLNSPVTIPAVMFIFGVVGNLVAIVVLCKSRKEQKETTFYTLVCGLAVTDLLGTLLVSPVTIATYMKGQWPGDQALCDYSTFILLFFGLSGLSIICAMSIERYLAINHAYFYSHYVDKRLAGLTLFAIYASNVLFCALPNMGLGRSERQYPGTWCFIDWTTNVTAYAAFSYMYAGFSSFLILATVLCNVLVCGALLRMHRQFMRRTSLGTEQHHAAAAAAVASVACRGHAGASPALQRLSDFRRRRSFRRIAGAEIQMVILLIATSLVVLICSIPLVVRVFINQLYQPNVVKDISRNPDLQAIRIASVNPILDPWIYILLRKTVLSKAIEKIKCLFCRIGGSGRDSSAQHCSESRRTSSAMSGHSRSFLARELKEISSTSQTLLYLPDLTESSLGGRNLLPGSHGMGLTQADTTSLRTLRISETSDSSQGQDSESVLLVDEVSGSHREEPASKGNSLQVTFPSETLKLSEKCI
The target in assay [3] is T2, Prostaglandin E2 receptor EP1 subtype (Mus musculus, UniProt P35375).
T2 sequence (P35375 whole entry): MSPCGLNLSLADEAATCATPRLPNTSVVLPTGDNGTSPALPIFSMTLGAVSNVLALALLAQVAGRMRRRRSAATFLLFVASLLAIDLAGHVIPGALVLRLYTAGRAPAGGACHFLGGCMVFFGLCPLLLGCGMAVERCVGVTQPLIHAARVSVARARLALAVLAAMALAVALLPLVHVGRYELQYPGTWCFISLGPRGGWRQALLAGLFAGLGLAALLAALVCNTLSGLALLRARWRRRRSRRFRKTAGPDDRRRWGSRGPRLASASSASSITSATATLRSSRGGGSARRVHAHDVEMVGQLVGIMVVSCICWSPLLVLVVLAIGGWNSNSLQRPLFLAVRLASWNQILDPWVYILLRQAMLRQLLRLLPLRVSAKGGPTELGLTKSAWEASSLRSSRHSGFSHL
Kind of assay: Evaluated for its competitive binding affinity towards mouse Prostanoid EP1 receptor in CHO cells expressing prostanoid receptor. It counts as cell-based.

A further assay concerns the target Prostacyclin receptor (Homo sapiens, UniProt P43119). Briefly: Evaluated for its competitive binding affinity towards human Prostanoid IP receptor in CHO cells. It counts as cell-based.
The target of assay [4] is T1, Prostaglandin E2 receptor EP4 subtype. Briefly: Evaluated for its competitive binding affinity towards mouse Prostanoid EP4 receptor in CHO cells expressing prostanoid receptor. The assay is classed as cell-based.
The target in assay [5] is T3, Prostaglandin E2 receptor EP3 subtype (Mus musculus, UniProt P30557).
T3 sequence (P30557 whole entry): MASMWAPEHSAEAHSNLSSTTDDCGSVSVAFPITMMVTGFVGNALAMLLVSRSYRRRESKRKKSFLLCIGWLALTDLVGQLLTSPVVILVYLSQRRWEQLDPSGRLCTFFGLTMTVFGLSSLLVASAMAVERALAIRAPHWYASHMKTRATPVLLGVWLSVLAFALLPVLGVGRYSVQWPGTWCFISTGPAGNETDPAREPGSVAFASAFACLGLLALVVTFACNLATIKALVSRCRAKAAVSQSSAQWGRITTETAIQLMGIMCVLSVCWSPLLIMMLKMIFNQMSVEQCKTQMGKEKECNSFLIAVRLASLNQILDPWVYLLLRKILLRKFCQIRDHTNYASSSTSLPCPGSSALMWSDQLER
Kind of assay: Evaluated for its competitive binding affinity towards mouse Prostanoid EP3 receptor in CHO cells expressing prostanoid receptor. It counts as cell-based.

The nature of assay [6]: Selectivity ratio (Prostanoid EP3 receptor/Prostanoid EP4 receptor) was determined.

Prostaglandin E2 receptor EP2 subtype, sequence (Q62053 whole entry): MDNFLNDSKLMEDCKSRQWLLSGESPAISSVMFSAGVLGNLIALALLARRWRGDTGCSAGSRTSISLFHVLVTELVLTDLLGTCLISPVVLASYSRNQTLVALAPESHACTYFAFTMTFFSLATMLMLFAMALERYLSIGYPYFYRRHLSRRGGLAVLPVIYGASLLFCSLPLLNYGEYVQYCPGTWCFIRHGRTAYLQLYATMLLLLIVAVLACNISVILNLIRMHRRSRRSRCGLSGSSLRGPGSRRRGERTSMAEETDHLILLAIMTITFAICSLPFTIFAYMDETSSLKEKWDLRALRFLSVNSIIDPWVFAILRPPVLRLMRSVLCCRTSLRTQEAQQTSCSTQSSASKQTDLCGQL
Prostacyclin receptor, sequence (P43119 whole entry): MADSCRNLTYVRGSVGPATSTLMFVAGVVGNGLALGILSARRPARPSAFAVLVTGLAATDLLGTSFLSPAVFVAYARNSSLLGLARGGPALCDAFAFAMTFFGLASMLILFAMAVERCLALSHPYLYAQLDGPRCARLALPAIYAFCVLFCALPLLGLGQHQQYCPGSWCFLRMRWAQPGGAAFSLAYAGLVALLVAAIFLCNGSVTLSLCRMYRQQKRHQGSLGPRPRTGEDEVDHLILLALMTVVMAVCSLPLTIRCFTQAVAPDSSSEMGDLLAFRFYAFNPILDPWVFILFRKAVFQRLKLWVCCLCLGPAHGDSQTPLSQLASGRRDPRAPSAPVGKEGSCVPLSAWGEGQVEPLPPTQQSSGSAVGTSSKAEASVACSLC

One may read the Ki as the equilibrium dissociation constant of an inhibitor or competing ligand from its target. Lower therefore signals higher affinity. Usually EC50 stands for the concentration giving half of the maximal effect. Lower therefore signals a more potent agent. On to `Cc1ccccc1C[C@H](O)/C=C/[C@H]1[C@H](O)CC(=O)[C@@H]1SCCCSCC(=O)O`, for which the Ki is 2500 nM in assay [1]; more than 10000 nM in assay [3]; more than 10000 nM at Prostacyclin receptor; 22 nM in assay [4]; 140 nM in assay [5]. This molecule showed an EC50 in assay [2] of 420 nM.
Take `Cc1ccc(C[C@H](O)/C=C/[C@H]2[C@H](O)CC(=O)[C@@H]2SCCCSCC(=O)O)cc1`: the inhibitory constant (Ki) in assay [1] was 1200 nM; in assay [3], more than 10000 nM; at Prostacyclin receptor, more than 10000 nM; in assay [4] it was 7.3 nM; in assay [5] it was 72 nM. In assay [2], this molecule yielded an EC50 of 270 nM.
As to `COc1ccc(C[C@H](O)/C=C/[C@H]2[C@H](O)CC(=O)[C@@H]2SCCCSCC(=O)O)cc1`, the Ki in assay [1] was 1500 nM; in assay [3], 3100 nM; at Prostacyclin receptor, more than 10000 nM; in assay [4] it was 7.1 nM; in assay [5] it was 220 nM. It took 32 nM to reach a half-maximal effect in assay [2] (EC50). In assay [6], the Selectivity ratio turned out to be 50.
As to `Cc1cccc(C[C@H](O)/C=C/[C@H]2[C@H](O)CC(=O)[C@@H]2SCCCSCC(=O)O)c1`, the Ki is 760 nM in assay [1]; more than 10000 nM in assay [3]; more than 10000 nM on Prostacyclin receptor; 1.9 nM in assay [4]; 100 nM in assay [5]. Further, the midpoint of the response in assay [2], the EC50, lay at 2.8 nM.
Take `CCCCC[C@H](O)/C=C/[C@H]1[C@H](O)CC(=O)[C@@H]1CCCCCCC(=O)O` [ALPROSTADIL]: the Ki in assay [1] is 41 nM; in assay [3], 22 nM. This molecule gave an EC50 in assay [2] of 2.5 nM.
On to `CCOCc1cccc(C[C@H](O)/C=C/[C@H]2[C@H](O)CC(=O)[C@@H]2SCCCSCC(=O)O)c1`, for which the Ki was more than 10000 nM in assay [1]; more than 10000 nM in assay [3]; more than 10000 nM on Prostacyclin receptor; 9.4 nM in assay [4]; 4500 nM in assay [5]. Besides, the EC50 in assay [2] was 2.5 nM. For the same molecule, in assay [6], the Selectivity ratio amounted to 450.
Regarding `O=C(O)CSCCCS[C@H]1C(=O)C[C@@H](O)[C@@H]1/C=C/[C@@H](O)Cc1ccccc1`, the Ki was 3900 nM in assay [1]; 2600 nM in assay [3]; more than 10000 nM at Prostacyclin receptor; 7 nM in assay [4]; 130 nM in assay [5]. In assay [2], the EC50 amounted to 34 nM.
With `COc1cccc(C[C@H](O)/C=C/[C@H]2[C@H](O)CC(=O)[C@@H]2SCCCSCC(=O)O)c1`, the Ki in assay [1] is more than 10000 nM; in assay [3], more than 10000 nM; on Prostacyclin receptor it was more than 10000 nM; in assay [4], 9.9 nM; in assay [5] it was 510 nM. Besides, in assay [2], a half-maximal effect (EC50) was put at 37 nM. Further, the Selectivity ratio in assay [6] stood at 50.
As to `COCCCc1cccc(C[C@H](O)/C=C/[C@H]2[C@H](O)CC(=O)[C@@H]2SCCCSCC(=O)O)c1`, the Ki in assay [1] was more than 10000 nM; in assay [3] it was more than 10000 nM; on Prostacyclin receptor it was more than 10000 nM; in assay [4] it was 100 nM; in assay [5], more than 10000 nM. The EC50 in assay [2] is 44 nM.
For `COCCc1cccc(C[C@H](O)/C=C/[C@H]2[C@H](O)CC(=O)[C@@H]2SCCCSCC(=O)O)c1`, the Ki in assay [1] is 3100 nM; in assay [3], more than 10000 nM; on Prostacyclin receptor it was more than 10000 nM; in assay [4], 8.5 nM; in assay [5], 3000 nM. This molecule also gave an EC50 in assay [2] of 12 nM.
Take `CCCCC[C@H](O)/C=C/[C@H]1[C@H](O)CC(=O)[C@@H]1SCCCOCC(=O)O`: the inhibition constant (Ki) in assay [1] turned out to be 150 nM; in assay [3] it was 1200 nM; at Prostacyclin receptor, 510 nM; in assay [4], 2.3 nM; in assay [5] it was 11 nM. In assay [2], the EC50 is 7.7 nM.
Turning to `CCCC[C@H](C)C[C@H](O)/C=C/[C@H]1[C@H](O)CC(=O)[C@@H]1SCCCCCC(=O)O`, the Ki in assay [1] was found to be 14 nM; in assay [3], 11 nM; on Prostacyclin receptor, 3.3 nM; in assay [4], 0.4 nM; in assay [5], 6.1 nM.
Take `CCCCC[C@H](O)/C=C/[C@H]1[C@H](O)CC(=O)[C@@H]1SCCSCCC(=O)O`: the Ki in assay [1] is 1200 nM; in assay [3] it was 610 nM; on Prostacyclin receptor, more than 10000 nM; in assay [4] it was 3.2 nM; in assay [5], 4.4 nM. For the same molecule, the EC50 in assay [2] was found to be 170 nM.
For the molecule `CSCc1cccc(C[C@H](O)/C=C/[C@H]2[C@H](O)CC(=O)[C@@H]2SCCCSCC(=O)O)c1`, the Ki in assay [1] is 5300 nM; in assay [3], more than 10000 nM; at Prostacyclin receptor, more than 10000 nM; in assay [4], 6 nM; in assay [5], 430 nM. The same molecule had an EC50 in assay [2] of 4.8 nM. Besides, the Selectivity ratio in assay [6] was determined as 70.
For the molecule `CCCCC[C@H](O)/C=C/[C@H]1[C@H](O)CC(=O)[C@@H]1SCCCSCC(=O)O`, the Ki in assay [1] was 280 nM; in assay [3] it was 610 nM; on Prostacyclin receptor, more than 10000 nM; in assay [4], 0.7 nM; in assay [5], 220 nM. In addition, the EC50 in assay [2] came to 4.3 nM.
`CCCOCc1cccc(C[C@H](O)/C=C/[C@H]2[C@H](O)CC(=O)[C@@H]2SCCCSCC(=O)O)c1`: the Ki was 7700 nM in assay [1]; more than 10000 nM in assay [3]; more than 10000 nM at Prostacyclin receptor; 5.2 nM in assay [4]; 3000 nM in assay [5]. Further, in assay [2], the EC50 was determined as 10 nM.
For the molecule `CCCCC[C@H](O)/C=C/[C@H]1[C@H](O)CC(=O)[C@@H]1SCCCCCC(=O)O`, the Ki was 100 nM in assay [1]; 120 nM in assay [3]; 870 nM at Prostacyclin receptor; 0.7 nM in assay [4]; 4.5 nM in assay [5]. In assay [2], this molecule registered an EC50 of 3.7 nM.
Take `COc1ccccc1C[C@H](O)/C=C/[C@H]1[C@H](O)CC(=O)[C@@H]1SCCCSCC(=O)O`: the Ki is 2600 nM in assay [1]; more than 10000 nM in assay [3]; more than 10000 nM at Prostacyclin receptor; 32 nM in assay [4]; 1100 nM in assay [5]. Moreover, the EC50 in assay [2] came to 580 nM. Moreover, the Selectivity ratio in assay [6] was found to be 50.
As to `CCCCC[C@H](O)/C=C/[C@H]1[C@H](O)CC(=O)[C@@H]1CSCCSCC(=O)O`, the Ki was 1000 nM in assay [1]; 50 nM in assay [3]; more than 10000 nM on Prostacyclin receptor; 28 nM in assay [4]; 3.5 nM in assay [5]. For the same molecule, the EC50 in assay [2] is 7800 nM.
Consider `COCc1cccc(C[C@H](O)/C=C/[C@H]2[C@H](O)CC(=O)[C@@H]2SCCCSCC(=O)O)c1`, for which the Ki in assay [1] was 2100 nM; in assay [3] it was more than 10000 nM; at Prostacyclin receptor, more than 10000 nM; in assay [4] it was 3.1 nM; in assay [5], 1200 nM. The midpoint of the response in assay [2], the EC50, lay at 3.1 nM. Moreover, the Selectivity ratio in assay [6] stood at 120.

Source of the values: ChEMBL document CHEMBL1133893, “Design and synthesis of a highly selective EP4-receptor agonist. Part 1: 3,7-dithiaPG derivatives with high selectivity” (Bioorg Med Chem Lett, 2001).
